Test results: patent US7410755B2, “ADP detection using an enzyme-coupled reaction” (Discoverx, priority 2005, dated 2008)

Molecular target: Protein Kinase A (PKA) (Homo sapiens, UniProt P17612)
Settings: read-out: Km of ATP for PKA; Kemptide substrate, PKA (Upstate), 30° C. for 1 hour; fitted to Michaelis-Menten equation; FIG. 4
Description: In this second example, kinase reaction, the activity of PKA is characterized further. In this experiment, the kinetics of ATP on PKA activity was examined by measuring the rate of kinase activity at varying concentration of ATP. The results of this assay were fitted to the Michaelis-Menten equation so that the Km (Michaelis-Menten constant) of ATP for PKA could be determined.
To perform a protein kinase assay using the ADP Detection Assay, the assay reagents were thawed at room temperature for several hours.
Low salt assay buffer (LS ASB) was used to dilute all reagents in the kinase reaction and consisted of 15 mM Hepes, 20 mM NaCl, 1 mM EGTA, 0.02% Tween 20, 10 mM MgCl2, 0.1% bovine gamma globulin at pH 7.4. Substrate reagent was generated containing 800 μM Kemptide substrate. […] PKA kinase (Upstate) was diluted to give a reagent of 20 ng/ml. […]
To detect the generation of ADP as a result of kinase activity, 10 μ ADP Substrate Reagent was added followed immediately by 20 μl of ADP Enzyme Reagent. […] Assay signal was measured with a Fluorocount® fluorescent plate reader (Packard) using 0.1 second integration with excitation and emission wavelengths at 530 and 590 nm respectively and a PMT voltage of 750 Volts.
The data was converted by dividing the signal measured by 60 to obtain the enzyme rate in RFU per minute. […]

Km: 22.3 µM
Structure (SMILES): Nc1ncnc2c1ncn2[C@@H]1O[C@H](COP(=O)(O)OP(=O)(O)OP(=O)(O)O)[C@@H](O)[C@H]1O [ATP]
